Source: US12459952B2, “TREM2 modulators” (Muna Therapeutics ApS, priority 2024, dated 2025)

Biological target: T1, Human TREM2 (Homo sapiens, UniProt Q9NZC2)
T1 construct: expressed in transfected cells
Assay: Human TREM2 cellular phospho-Syk AlphaLISA assay in HEK293/DAP12+TREM2 stable cell line
Type: cell-based
Conditions: HEK293/DAP12+TREM2 cells; for Emax: maximal response relative to the maximal response of the reference agonist, phospho-Syk AlphaLISA; for EC50: phospho-Syk (Tyr525/526) AlphaLISA signal, 30 min incubation
Source text: Human TREM2, in vitro Measurement of Triggering Receptor Expressed on Myeloid Cells 2 activity using cellular phosphorylation of Spleen Tyrosine Kinase (“Syk”) Assay
HEK-293 cells were co-transfected with separate plasmids encoding TREM2 and DAP12 to generate a stable cell line. After antibiotic selection, functional clone pool analysis and two successive limiting dilutions, the final clone “HEK293/DAP12+TREM2” underwent a qPCR analysis and a pharmacological validation.
TREM2 signaling through DAP12 was monitored in the HEK293/DAP12+TREM2 stable cell line by measuring the phosphorylation levels of the Syk kinase using the commercially available AlphaLISA SureFire Ultra p-SYK (Tyr525/526) Assay Kit (PerkinElmer #ALSU-PSYK), based on the Perkin Elmer AlphaScreen/AlphaLISA technology.
Compounds are transferred to the test plate and tested in full dose response, 8 concentrations in quadruplicate data points. Compound serial dilutions were performed at Cybi-Felix instrument in 100% DMSO and the dose response curves were assembled in automated fashion in 384MPT at Hamilton STARlet instrument. All the stock solutions were prepared at 20 mM in 100% DMSO. For compounds testing, the starting concentration was 100 μM, dilution steps 1:6. A different concentration's range was adapted for compound's activity based on the preliminary results. Finally, a 384MPT reformatted for all compounds at 8 concentrations, quadruplicates, was used as “mother to child” process with a CyBi@-Well dispenser in which 1 μL of each compound was moved into a destination plate pre-filled with […] of EMEM cell culture medium (BIOWHITTAKER_cat.BE12-125F), thus obtaining 3× concentrated compounds working solution. In columns 1-2 and 23-24 the control wells were added. In particular, dose response curves of a reference control agonist were included in column 1 and 24 as reference control agonist (Reference control agonists used include Human TREM2 polyclonal Antibody AF1828: R&D Systems; Human TREM2 monoclonal Antibody MAB1828: R&D Systems). The dose response curves were tested starting at 30 μM, dilution step 1:6. Both “source” compound plate and “destination” compound plate were barcoded and a relationship between the two plates was thus generated.
HEK293/DAP12+TREM2 cells were cultured in EMEM medium supplemented with IX Penicillin/Streptomycin (BIOWHITTAKER_cat.DE17-602E), ULTRAGLUTAMINE I 200 mM, 10% Fetal Bovine Serum plus antibiotics referred to as “HEK293 Culture Medium”. The day before the experiment, cells were detached by gentle wash with DPBS, followed by 5 min incubation at 37° C. with Trypsin solution. Cells were then diluted in HEK293 Culture Medium without antibiotics, counted and seeded into 384-well poly-D-Lysine coated microplates black/clear bottom (GREINER 781946) at a density of 10,000 cells/well in 25 μL/well by the use of a MATRIX WellMate dispenser. Plates were placed into a humidified cell culture incubator at 37° C. with 5% CO2 until the experimental day. 20-24 hours after seeding mature medium was removed and replaced with 10 μL/well of EMEM cell medium supplemented with 0.1% Pluronic F-68 non-ionic surfactant (Thermofisher, 24040032), referred to as “Assay Buffer”, using the CyBi@-Well instrument. Then 5 μL/well of Assay Buffer containing 3× concentrated test compounds or the reference control agonist (in 0.5% final DMSO concentration) were added to the cells with the CyBi@-Well instrument. Cell plates were incubated for 30 min into a humidified cell culture incubator at 37° C. with 5% CO2, then the medium was removed by manually discard. 20 μL/well of lysis buffer were dispensed using the CyBi@-Well instrument and plates were incubated for 10 min at room temperature on a plate shaker (350 rpm). Then, 10 μL/well of lysate were transferred to the Alpha plates.
The CyBi@-Well instrument was used to dispense 5 μL/well of AlphaLISA Acceptor Bead Solution in IX Immunoassay buffer (Perkin Elmer AL000F). […]

T1 sequence (Q9NZC2 19-230): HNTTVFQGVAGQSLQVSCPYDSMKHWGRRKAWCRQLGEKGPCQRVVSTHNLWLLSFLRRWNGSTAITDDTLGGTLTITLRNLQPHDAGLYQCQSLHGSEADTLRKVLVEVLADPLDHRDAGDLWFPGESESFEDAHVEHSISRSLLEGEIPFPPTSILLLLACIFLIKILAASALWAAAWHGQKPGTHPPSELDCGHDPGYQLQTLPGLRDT
T1 sequence (O43914 22-113 partner): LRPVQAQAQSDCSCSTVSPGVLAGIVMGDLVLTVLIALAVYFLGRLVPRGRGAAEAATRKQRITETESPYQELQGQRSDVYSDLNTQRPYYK

| SMILES | Emax | EC50 |
| --- | --- | --- |
| Cn1c(C(F)(F)F)nc2c(-c3ccc(C#N)cc3F)nc(N3CC(Oc4cnn(C5CC5)c4)C3)nc2c1=O [Example 1, 4-(2-(3-((1-cyclopropyl-1H-pyrazol-4-yl)oxy)azetidin-1-yl)-7-methyl-8-oxo-6-(trifluoromethyl)-7,8-dihydropyrimido[5,4-d]pyrimidin-4-yl)-3-fluorobenzonitrile] | 75 to 110% | < 10 nM |
| Cn1c(C(F)(F)F)nc2c(-c3ccc(C#N)cc3F)nc(N3CC(Oc4nncs4)C3)nc2c1=O [Example 2, 4-(2-(3-((1,3,4-thiadiazol-2-yl)oxy)azetidin-1-yl)-7-methyl-8-oxo-6-(trifluoromethyl)-7,8-dihydropyrimido[5,4-d]pyrimidin-4-yl)-3-fluorobenzonitrile] | < 75% | > 1000 nM |
| Cc1nnc(OC2CN(c3nc(-c4ccc(C#N)cc4F)c4nc(C(F)(F)F)n(C)c(=O)c4n3)C2)s1 [Example 3, 3-fluoro-4-(7-methyl-2-(3-((5-methyl-1,3,4-thiadiazol-2-yl)oxy)azetidin-1-yl)-8-oxo-6-(trifluoromethyl)-7,8-dihydropyrimido[5,4-d]pyrimidin-4-yl)benzonitrile] | < 75% | 100 to 1000 nM |
| CCc1nnc(OC2CN(c3nc(-c4ccc(C#N)cc4F)c4nc(C(F)(F)F)n(C)c(=O)c4n3)C2)s1 [Example 4, 4-(2-(3-((5-ethyl-1,3,4-thiadiazol-2-yl)oxy)azetidin-1-yl)-7-methyl-8-oxo-6-(trifluoromethyl)-7,8-dihydropyrimido[5,4-d]pyrimidin-4-yl)-3-fluorobenzonitrile] | 75 to 110% | 100 to 1000 nM |
| Cn1c(C(F)(F)F)nc2c(-c3ccc(C#N)cc3F)nc(N3CC(Oc4cnccn4)C3)nc2c1=O [Example 5, 3-fluoro-4-(7-methyl-8-oxo-2-(3-(pyrazin-2-yloxy)azetidin-1-yl)-6-(trifluoromethyl)-7,8-dihydropyrimido[5,4-d]pyrimidin-4-yl)benzonitrile] | < 75% | 10 to 100 nM |

The next lines start with the values.

| Emax | EC50 | SMILES |
| --- | --- | --- |
| < 75% | 100 to 1000 nM | Cc1cncc(OC2CN(c3nc(-c4ccc(C#N)cc4F)c4nc(C(F)(F)F)n(C)c(=O)c4n3)C2)n1 [Example 6, 3-fluoro-4-(7-methyl-2-(3-((6-methylpyrazin-2-yl)oxy)azetidin-1-yl)-8-oxo-6-(trifluoromethyl)-7,8-dihydropyrimido[5,4-d]pyrimidin-4-yl)benzonitrile] |
| < 75% | 100 to 1000 nM | Cn1c(C(F)(F)F)nc2c(-c3ccc(C#N)cc3F)nc(N3CC(Oc4cnc(C#N)cn4)C3)nc2c1=O [Example 7, 5-((1-(4-(4-cyano-2-fluorophenyl)-7-methyl-8-oxo-6-(trifluoromethyl)-7,8-dihydropyrimido[5,4-d]pyrimidin-2-yl)azetidin-3-yl)oxy)pyrazine-2-carbonitrile] |
| < 75% | 100 to 1000 nM | Cc1c(OC2CN(c3nc(-c4ccc(C#N)cc4F)c4nc(C(F)(F)F)n(C)c(=O)c4n3)C2)cnn1C [Example 8, 4-(2-(3-((1,5-dimethyl-1H-pyrazol-4-yl)oxy)azetidin-1-yl)-7-methyl-8-oxo-6-(trifluoromethyl)-7,8-dihydropyrimido[5,4-d]pyrimidin-4-yl)-3-fluorobenzonitrile] |
| 75 to 110% | 100 to 1000 nM | Cc1n[nH]c(C)c1OC1CN(c2nc(-c3ccc(C#N)cc3F)c3nc(C(F)(F)F)n(C)c(=O)c3n2)C1 [Example 9, 4-(2-(3-((3,5-dimethyl-1H-pyrazol-4-yl)oxy)azetidin-1-yl)-7-methyl-8-oxo-6-(trifluoromethyl)-7,8-dihydropyrimido[5,4-d]pyrimidin-4-yl)-3-fluorobenzonitrile] |
| < 75% | 100 to 1000 nM | Cc1nn(C)cc1OC1CN(c2nc(-c3ccc(C#N)cc3F)c3nc(C(F)(F)F)n(C)c(=O)c3n2)C1 [Example 10, 4-(2-(3-((1,3-dimethyl-1H-pyrazol-4-yl)oxy)azetidin-1-yl)-7-methyl-8-oxo-6-(trifluoromethyl)-7,8-dihydropyrimido[5,4-d]pyrimidin-4-yl)-3-fluorobenzonitrile] |
